Assay results as given in publication PMC8629796, “Inhibition of the hERG potassium channel by phenanthrene: a polycyclic aromatic hydrocarbon pollutant” (Cellular and Molecular Life Sciences: CMLS, 2021).

Legend:
[1] = target: T1, hERG (hERG1a, Kv11.1) potassium channel (Homo sapiens, UniProt Q12809); test: whole-cell patch clamp, tail current inhibition; assay type: cell-based
T1 construct: gene KCNH2; WT hERG1a stably expressed in HEK293 cells

[2] = target: T2, hERG (hERG1a, Kv11.1) potassium channel (Homo sapiens, UniProt Q12809, F656T); test: whole-cell patch clamp, tail current block by […]; assay type: cell-based
T2 construct: gene KCNH2; hERG1a F656T transiently expressed in HEK293 cells

[3] = target: T3, hERG (hERG1a, Kv11.1) potassium channel (Homo sapiens, UniProt Q12809, F656V)
T3 construct: gene KCNH2

zebrafish ERG (zERG) = target: T4, zebrafish ERG (zERG) (Danio rerio, UniProt A0A8M1PIE0); test: whole-cell patch clamp, current inhibition; assay type: cell-based
T4 construct: gene kcnh6a

[4] = target: T5, hERG (hERG1a, Kv11.1) potassium channel (Homo sapiens, UniProt Q12809, Y652A); test: whole-cell patch clamp, tail current inhibition; assay type: cell-based
T5 construct: gene KCNH2; hERG1a Y652A transiently expressed in HEK293 cells
T5 sequence (Q12809 whole entry Y652A): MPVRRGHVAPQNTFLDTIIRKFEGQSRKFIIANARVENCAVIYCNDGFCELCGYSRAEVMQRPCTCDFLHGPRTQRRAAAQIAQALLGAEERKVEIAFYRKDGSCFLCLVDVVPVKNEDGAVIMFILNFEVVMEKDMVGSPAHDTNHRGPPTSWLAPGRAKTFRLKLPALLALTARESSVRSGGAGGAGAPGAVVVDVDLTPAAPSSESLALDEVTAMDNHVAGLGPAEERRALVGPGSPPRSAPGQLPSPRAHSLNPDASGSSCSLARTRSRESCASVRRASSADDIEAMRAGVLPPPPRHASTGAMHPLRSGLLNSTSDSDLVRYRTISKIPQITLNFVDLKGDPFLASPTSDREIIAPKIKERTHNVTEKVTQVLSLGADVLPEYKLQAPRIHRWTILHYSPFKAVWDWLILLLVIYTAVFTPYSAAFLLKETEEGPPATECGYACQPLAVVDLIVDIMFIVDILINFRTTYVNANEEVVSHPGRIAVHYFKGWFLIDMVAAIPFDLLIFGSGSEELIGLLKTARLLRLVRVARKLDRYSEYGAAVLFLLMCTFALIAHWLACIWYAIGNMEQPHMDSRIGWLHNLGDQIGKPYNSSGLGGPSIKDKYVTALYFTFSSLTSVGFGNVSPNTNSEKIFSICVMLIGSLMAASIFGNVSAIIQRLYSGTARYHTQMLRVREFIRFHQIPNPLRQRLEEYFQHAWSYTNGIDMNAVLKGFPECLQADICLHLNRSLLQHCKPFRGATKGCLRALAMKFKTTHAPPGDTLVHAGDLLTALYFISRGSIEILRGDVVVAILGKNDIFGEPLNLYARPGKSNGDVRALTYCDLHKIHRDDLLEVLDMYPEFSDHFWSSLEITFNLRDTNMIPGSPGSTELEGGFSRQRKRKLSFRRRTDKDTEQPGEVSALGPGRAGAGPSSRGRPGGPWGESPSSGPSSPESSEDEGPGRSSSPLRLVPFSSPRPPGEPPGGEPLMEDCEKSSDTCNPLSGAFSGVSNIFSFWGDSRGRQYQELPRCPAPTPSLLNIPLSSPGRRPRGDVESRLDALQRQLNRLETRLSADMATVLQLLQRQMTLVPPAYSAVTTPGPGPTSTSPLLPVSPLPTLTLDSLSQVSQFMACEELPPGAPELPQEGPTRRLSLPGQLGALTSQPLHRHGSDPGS

T1 sequence (Q12809 whole entry): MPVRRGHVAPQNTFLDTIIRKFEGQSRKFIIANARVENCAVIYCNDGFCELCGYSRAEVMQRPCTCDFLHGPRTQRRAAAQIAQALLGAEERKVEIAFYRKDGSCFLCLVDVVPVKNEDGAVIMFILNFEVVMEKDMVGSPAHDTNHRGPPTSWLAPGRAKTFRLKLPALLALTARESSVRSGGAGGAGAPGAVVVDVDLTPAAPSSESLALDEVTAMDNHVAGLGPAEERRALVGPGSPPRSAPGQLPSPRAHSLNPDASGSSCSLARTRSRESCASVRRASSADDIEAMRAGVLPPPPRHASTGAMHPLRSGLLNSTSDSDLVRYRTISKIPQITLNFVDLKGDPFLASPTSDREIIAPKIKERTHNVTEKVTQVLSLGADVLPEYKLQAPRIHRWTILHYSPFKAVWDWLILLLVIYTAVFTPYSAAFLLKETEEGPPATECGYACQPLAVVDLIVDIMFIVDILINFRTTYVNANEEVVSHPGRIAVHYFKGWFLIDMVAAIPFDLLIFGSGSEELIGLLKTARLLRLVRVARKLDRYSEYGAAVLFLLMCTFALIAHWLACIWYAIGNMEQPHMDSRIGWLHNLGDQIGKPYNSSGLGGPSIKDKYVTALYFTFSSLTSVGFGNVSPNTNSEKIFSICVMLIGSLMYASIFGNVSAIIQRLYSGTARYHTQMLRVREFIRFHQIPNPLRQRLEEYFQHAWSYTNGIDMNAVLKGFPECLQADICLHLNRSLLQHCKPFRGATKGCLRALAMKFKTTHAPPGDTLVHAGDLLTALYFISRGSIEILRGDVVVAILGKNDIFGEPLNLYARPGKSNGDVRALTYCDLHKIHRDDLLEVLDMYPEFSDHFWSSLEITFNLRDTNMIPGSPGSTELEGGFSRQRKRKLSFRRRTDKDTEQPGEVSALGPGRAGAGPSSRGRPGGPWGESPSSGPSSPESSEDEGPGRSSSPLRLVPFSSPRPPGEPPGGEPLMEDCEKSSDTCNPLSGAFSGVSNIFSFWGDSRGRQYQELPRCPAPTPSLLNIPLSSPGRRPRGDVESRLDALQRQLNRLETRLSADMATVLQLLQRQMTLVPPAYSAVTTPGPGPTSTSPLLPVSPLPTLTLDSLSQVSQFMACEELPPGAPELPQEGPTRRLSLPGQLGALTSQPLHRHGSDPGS
T3 sequence (Q12809 whole entry F656V): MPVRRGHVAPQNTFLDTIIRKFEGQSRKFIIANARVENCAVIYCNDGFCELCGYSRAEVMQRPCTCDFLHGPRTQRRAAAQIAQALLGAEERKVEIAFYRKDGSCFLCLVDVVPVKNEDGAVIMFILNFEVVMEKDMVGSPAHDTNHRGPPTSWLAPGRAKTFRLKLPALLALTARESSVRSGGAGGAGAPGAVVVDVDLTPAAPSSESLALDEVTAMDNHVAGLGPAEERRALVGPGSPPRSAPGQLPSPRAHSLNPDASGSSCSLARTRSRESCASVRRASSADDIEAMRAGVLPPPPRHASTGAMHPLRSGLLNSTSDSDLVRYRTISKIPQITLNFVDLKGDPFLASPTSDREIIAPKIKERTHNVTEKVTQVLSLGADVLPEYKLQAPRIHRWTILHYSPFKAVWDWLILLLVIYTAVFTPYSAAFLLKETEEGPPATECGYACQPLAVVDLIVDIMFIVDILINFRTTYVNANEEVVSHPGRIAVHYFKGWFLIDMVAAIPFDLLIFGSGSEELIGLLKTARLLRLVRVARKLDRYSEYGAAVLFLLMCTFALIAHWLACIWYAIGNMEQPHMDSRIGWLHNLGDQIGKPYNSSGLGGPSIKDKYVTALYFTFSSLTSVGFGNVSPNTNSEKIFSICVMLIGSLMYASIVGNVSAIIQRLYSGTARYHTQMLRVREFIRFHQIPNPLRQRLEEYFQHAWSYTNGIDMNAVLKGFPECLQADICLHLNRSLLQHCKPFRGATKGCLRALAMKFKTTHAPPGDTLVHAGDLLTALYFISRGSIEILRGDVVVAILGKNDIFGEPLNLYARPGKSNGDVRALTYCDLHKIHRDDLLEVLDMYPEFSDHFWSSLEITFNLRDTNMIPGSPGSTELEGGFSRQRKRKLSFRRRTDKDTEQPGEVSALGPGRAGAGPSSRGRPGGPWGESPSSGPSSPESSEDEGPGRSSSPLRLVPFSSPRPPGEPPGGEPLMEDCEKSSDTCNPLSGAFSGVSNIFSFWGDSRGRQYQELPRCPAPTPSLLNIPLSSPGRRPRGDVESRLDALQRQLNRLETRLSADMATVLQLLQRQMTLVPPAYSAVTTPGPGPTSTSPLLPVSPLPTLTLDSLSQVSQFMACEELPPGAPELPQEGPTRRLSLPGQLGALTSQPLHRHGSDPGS
T2 sequence (Q12809 whole entry F656T): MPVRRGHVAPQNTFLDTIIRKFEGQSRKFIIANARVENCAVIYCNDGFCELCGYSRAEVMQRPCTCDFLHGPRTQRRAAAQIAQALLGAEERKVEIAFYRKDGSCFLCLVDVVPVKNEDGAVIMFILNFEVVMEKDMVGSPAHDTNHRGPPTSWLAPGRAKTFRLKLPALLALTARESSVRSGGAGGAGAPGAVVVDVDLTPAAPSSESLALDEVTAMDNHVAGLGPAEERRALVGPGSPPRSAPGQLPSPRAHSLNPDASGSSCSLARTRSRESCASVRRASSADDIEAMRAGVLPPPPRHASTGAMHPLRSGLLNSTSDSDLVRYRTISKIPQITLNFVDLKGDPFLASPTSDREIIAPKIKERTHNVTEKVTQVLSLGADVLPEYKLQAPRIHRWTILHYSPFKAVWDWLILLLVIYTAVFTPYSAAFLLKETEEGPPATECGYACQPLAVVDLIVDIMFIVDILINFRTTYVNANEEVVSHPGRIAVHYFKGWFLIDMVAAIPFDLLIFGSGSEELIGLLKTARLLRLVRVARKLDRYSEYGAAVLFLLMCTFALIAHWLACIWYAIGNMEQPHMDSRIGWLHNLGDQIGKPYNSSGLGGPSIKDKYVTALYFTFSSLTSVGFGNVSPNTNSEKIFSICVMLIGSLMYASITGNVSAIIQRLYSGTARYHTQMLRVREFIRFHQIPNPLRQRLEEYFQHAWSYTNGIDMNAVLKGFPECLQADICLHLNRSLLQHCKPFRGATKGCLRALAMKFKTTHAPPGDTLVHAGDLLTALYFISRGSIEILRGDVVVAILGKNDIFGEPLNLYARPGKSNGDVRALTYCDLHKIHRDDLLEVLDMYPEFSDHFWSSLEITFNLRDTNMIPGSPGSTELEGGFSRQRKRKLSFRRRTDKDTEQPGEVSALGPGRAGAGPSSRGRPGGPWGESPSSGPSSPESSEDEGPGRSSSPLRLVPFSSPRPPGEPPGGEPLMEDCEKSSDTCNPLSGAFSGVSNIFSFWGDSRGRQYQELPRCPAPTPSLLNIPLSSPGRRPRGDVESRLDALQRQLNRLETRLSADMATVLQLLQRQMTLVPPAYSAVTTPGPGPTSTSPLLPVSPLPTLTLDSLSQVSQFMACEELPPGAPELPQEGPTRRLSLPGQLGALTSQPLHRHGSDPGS

- IC50 (zebrafish ERG (zERG)): 8.77 ± 0.93 µM
SMILES: c1ccc2c(c1)ccc1ccccc12 [phenanthrene]
- IC50 [1]: 17.6 ± 1.7 µM
- whole-cell patch clamp, tail current block by 30 μM [2]: this effect was not statistically significantly different from block of WT IhERG
- whole-cell patch clamp, tail current block by 30 μM [3]: also did not impair the inhibitory effect of phenanthrene, showing a trend towards increased block
- IC50 [4]: 0.46 ± 0.01 µM
